How the values were obtained:
[1] = solubility compared to neotame; assay type: physicochemical; details: relative to neotame; for solubility compared to neotame: crystallization context
[2] = relative to sucrose; cited from earlier work

Structure (SMILES): CC(C)(C)CCN[C@@H](CC(=O)O)C(=O)N[C@@H](Cc1ccccc1)C(=O)O [demethylated α-neotame, N-[N-(3,3-dimethylbutyl)-L-α-aspartyl]-L-phenylalanine]
- solubility in water compared to neotame ([1]; water): more soluble in water

Structure (SMILES): COC(=O)[C@H](Cc1ccccc1)NC(=O)[C@H](CC(=O)O)N(CCC(C)(C)C)CCC(C)(C)C [dialkylated aspartame, N,N-di(3,3-dimethylbutyl)-L-aspartyl-L-phenylalanine methyl ester]
- solubility compared to neotame [1]: very similar solubilities

Structure (SMILES): COC(=O)[C@H](Cc1ccccc1)N1C(=O)C(CC(=O)O)N(CCC(C)(C)C)C1CC(C)(C)C (stereo partly drawn) [dialkylated imidazolidinone, α-methyl hydrogen-3-(3,3-dimethylbutyl)-2-L-(2,2-dimethylpropyl)-5-oxo-α-L-(phenylmethyl)-1,4(L)-imidazolidine diacetate]
- solubility compared to neotame [1]: very similar solubilities

Structure (SMILES): COC(=O)C[C@H](NCCC(C)(C)C)C(=O)NC(Cc1ccccc1)C(=O)OC (stereo partly drawn) [methyl ester of α-neotame, methyl ester of N-[N-(3,3-dimethylbutyl)-L-α-aspartyl]-L-phenylalanine 1-methyl ester]
- solubility compared to neotame [1]: very similar solubilities

Structure (SMILES): COC(=O)C(Cc1ccccc1)NC(=O)C(CC(=O)O)NCCC(C)(C)C [neotame, N-[N-(3,3-dimethylbutyl)-L-α-aspartyl]-L-phenylalanine 1-methyl ester]
- sweetness potency (sweeter than sucrose) [2]: about 8000 X
